# Test results taken from patent US8071321B2, “Methods for up-regulating antigen expression in tumors” (CytoCure LLC, priority 2002, dated 2011).
# B1: OSM: Recombinant human oncostatin M (rhOSM) from R&D Systems (protein, UniProt P13725 26-221, looked up)
# Oncostatin-M: AAIGSCSKEYRVLLGQLQKQTDLMQDTSRLLDPYIRIQGLDVPKLREHCRERPGAFPSEETLRGLGRRGFLQTLNATLGCVLHRLADLEQRLPKAQDLERSGLNIEDLEKLQMARPNILGLRNNIYCMAQLLDNSDTAEPTKAGRGASQPPTPTPASDAFQRKLEGCRFLHGYHRFMHSVGRVFSKWGESPNRSRR
# What was measured:
# [1] = tested on: gp100 antigen in MU-X melanoma cells; test: Flow cytometric analysis of gp100 (HMB) staining in MU-X low antigen-expressing cells; type: cell-based, human
# Experimental: (§1) Determination of protein Antigen in Tumor Cells via Flow Cytometric Analysis: To evaluate expression of cytoplasmic Melan-A/MART-1 antigen in melanoma tumor cell lines, cells were first fixed for 10′ in 1% paraformaldehyde; the cells are pelleted and incubated for 5′ in 0.1% saponin prior to washing and addition of monoclonal antibody specific for Melan-A/MART-1, A-103 (Ramirez-Montagut, et al., supra) for 45′ at 22° C. Following two washes, the cells were stained for 30′ with FITC-conjugated goat-anti-mouse Ig antibody (DAKO, Carpenteria, Calif.) prior to fixation in 1% paraformaldehyde and analysis by flow cytometry (FACScan, Becton-Dickinson, Mt. View, Calif.). Histograms of fluorescence staining were generated for comparison of anti-Melan-A/MART-1 staining of various cell populations. Mean channel fluorescence was calculated using the “LYSIS” software provided by the manufacturer. Gp100 expression was determined similarly using the HMB45 monoclonal antibody.
# [2] = tested on: Melan-A/MART-1 in MITF-M transfected MU-X tumor cells; conditions: 24 hours, U0126 10 μM (FIG. 6)
# Experimental: (§2) Primers were designed from appropriate GenBank mRNA and genomic entries and designed to be intron-spanning to prevent simultaneous amplification of traces of genomic DNAs. Where this was not possible RNAs were treated with RNase-free DNase I and repurified.
# (§3) To express MITF-M in cell lines expressing low levels of Melan-A/MART-1, MITF-M coding sequence was amplified from MITF-M-positive cells and cloned in an SV40-promoter expression vector (pSV21ink); translation of the MITF-M insert uses optimal Kozak initiation signals (Kozak (1999). Gene 234:187). Constructs were transfected into low-Melan-A/MART-1 expressor melanoma (MU-X and A375). In all studies controls comprised empty vector, transfection reagents in the absence of added DNA, and corresponding untransfected cells. Data shown in FIG. 6 for A375 and MU-X tumor cells transfected with MITF-M for 24 hours in the presence (10 μM) or absence of U0126 before PCR amplification of Melan-A/MART-1.
# [3] = tested on: Melan-A/MART-1 in MITF-M transfected A375 tumor cells; conditions: 24 hours, U0126 10 μM (FIG. 6)
# Experimental: as §2, §3
# [4] = tested on: gp100 antigen in MU-89 melanoma cells; test: Flow cytometric analysis of gp100 (HMB45 staining) in MU-89 cells; type: cell-based, human; conditions: HMB 45 staining, control MU-89 41.6
# Experimental: as §1
# [5] = tested on: melanocyte-related genes in MU-89 cells; test: RT-PCR of melanoma gene expression in MU-89 cells; type: cell-based, human; conditions: MU-89 cells (FIG. 5)
molecule,measurement,setting,value
Nc1ncn([C@H]2C[C@H](O)[C@@H](CO)O2)c(=O)n1 [5 azadeoxycytidine],effect on interferon-beta induced gp100 expression,[1]; gp100 (HMB) staining (FIG. 4),augmented
"Nc1ncn([C@@H]2O[C@H](CO)[C@@H](O)[C@H]2O)c(=O)n1 [5-AZA, 5-azacytidine]",gp100 mean channel fluorescence,"[1]; MU-X cells, 5-AZA 40uM, MU-X control 12.8",39.0
N#CC(=C(/N)Sc1ccccc1N)/C(C#N)=C(\N)Sc1ccccc1N [U0126],Melan-A/MART-1 expression,[2],augmented enhancement
same,Melan-A/MART-1 expression,[3],augmented enhancement
B1,gp100 mean channel fluorescence,[4],29.5
same,MITF-A isoform expression,[5],not detectably responsive
same,MITF-M expression,[5],down-modulates
same,"expression of Melan-A/MART-1, tyrosinase, gp100, TRP-1 and TRP-2 genes",[5],induces down-modulation
